In US9018000B2, “Voltage gated calcium channel β-subunit anchoring regulator protein and uses thereof” (Agency for Science, Technology and Research, priority 2007, dated 2015):

Assays:
[1] = cited from earlier work
[2] = test system: β-subunits; assay: co-immunoprecipitation / co-precipitation of BARP with β-subunits; assay type: binding
Procedure: To verify that BARP binds to the β-subunits in mammalian cells, co-immunoprecipitation experiments were carried out in COS-1 cells. […] To confirm this association in vivo, we determined the subcellular localization of the β-subunits in the presence of BARP in transfected PC12 and COS-1 cells.
To examine that domain I is indeed a AID-like region, we first mutated the known amino acids in the β-subunit hydrophobic groove responsible for AID interaction, and tested these mutants for association with either AID or BARP domain I by co-precipitation studies. In comparison with the AID domain that only required M196 as a crucial interacting site, almost all amino acid substitutions in the hydrophobic groove of β-subunits interfered with BARP domain I interaction (FIG. 2Cb).
Next, we determined if additional binding sites in BARP are present for β-subunit association. With the use of truncated form of the protein, in which the domain I was abolished, and co-precipitation experiments, we identified a second domain (Dom. II) downstream to the first one (FIG. 2Da).
To further confirm that both domains associate to the β-subunit in the context of full-length BARP, domain I and II were mutated to abolish their respective interaction. […]

[3] = target: T1, β3/AID complex (Rattus norvegicus, UniProt P54287); assay: dissociation of β3-subunits from GST-AID by competitive peptides; assay type: binding; conditions: peptide 30, 60, 300, 600 nM, four hours, Western blot of supernatant
T1 construct: expressed in transfected cells; host or cells: COS-1 (β3 lysate)
Source text: A, Cell surface expression of HA-epitope tagged Cav1.2 and N-Myc BARP in the presence or absence of Cavβ-subunits. Intact cells expressing Cav1.2, BARP and Cavβ-subunits were immunostained with HA and Myc antibodies. Cav 1.2 AID (X) is a mutant deficient in the β-interacting domain. BARP (db) is a mutant deficient in domain I and II, BARP (LW), or BARP (LFFL), mutants are deficient in domain I and II, respectively. Non-permeabilized TsA201 cells co-expressing wt or mutated HA-Cav1.2, wt or mutated Myc-BARP and the Cavβ-subunits were immunostained with antibodies to HA (green) and Myc (red). Cav 1.2 AID (X) and BARP (db) are mutants defective in Cavβ-subunit binding. […] In vivo expressed Cavβ3-subunits were pulled-down using a GST-AID fusion protein and the complex then incubated with increasing amounts of AID or BARP Domain I peptide. The Cavβ3-subunit displaced from the GST-AID was monitored by Western blot. […] Effects of wt or mutated BARP on the I-V relationship of Ca^2+-channels are shown. […]
To verify if the AID-like domain of BARP dissociates β-subunits from the AID of α1-subunits, COS-1 cells lysate expressing β3 subunits was incubated with GST-AID fusion protein to form a β3/AID complex and subsequently, the dissociation of β3 subunits was monitored after addition of an increasing amount of competitive AID or AID-like BARP peptide (FIG. 4D).

T1 sequence (P54287 whole entry, one chain of several): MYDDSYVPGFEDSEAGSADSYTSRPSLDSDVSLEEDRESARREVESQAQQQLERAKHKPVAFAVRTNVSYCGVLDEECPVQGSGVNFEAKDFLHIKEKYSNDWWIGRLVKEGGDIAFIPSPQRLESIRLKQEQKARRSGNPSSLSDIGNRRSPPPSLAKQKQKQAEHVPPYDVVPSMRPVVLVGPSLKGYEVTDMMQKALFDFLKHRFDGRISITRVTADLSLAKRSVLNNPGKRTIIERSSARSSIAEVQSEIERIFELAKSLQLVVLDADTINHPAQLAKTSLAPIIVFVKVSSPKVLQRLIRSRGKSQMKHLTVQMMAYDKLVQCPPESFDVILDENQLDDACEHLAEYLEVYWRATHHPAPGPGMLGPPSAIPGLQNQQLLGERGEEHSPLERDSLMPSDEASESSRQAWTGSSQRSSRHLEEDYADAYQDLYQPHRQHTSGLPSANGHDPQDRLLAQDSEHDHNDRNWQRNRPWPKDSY

Compound	association with β-subunit isoforms [2]	further results
COC(=O)C1=C(C)NC(C)=C([N+](=O)[O-])C1c1ccccc1C(F)(F)F (stereo not shown) [BayK 8644]	–	side effects in vivo [1]: severe side effects such as dystonic neurobehavioural syndrome, hypertension and arrhythmia
Isolated BARP domain I: isolated AID-like β-interacting domain I of BARP, expressed as GST fusion	able to associate with all known) β-subunit isoforms	–
SYRDLWSLRASLELHAATASD [BARP Domain I peptide]	–	dissociation of β3-subunit from GST-AID [3]: displaces the Cavβ3-subunit from the AID
isolated domain II: isolated second β-interacting domain of BARP (SEQ ID NO:8) (PRAWPRRPRRDYSIDEKTDALFHEFLRHDPHFDDAPRHR)	interacted with β2, β3 and β4, but not with β1 isoforms	–
